# Key:
# [1] = system: PAF-Induced Human Platelet Aggregation; assay: PAF-induced human platelet aggregation assay (in vitro PAF antagonism); type: cell-based; details: for IC50: human platelet-rich plasma, 37° C., 2 min preincubation, PAF 1-5×10^-8 M, 0.1% DMSO, read-out: IC50 (PAF activity, inhibition of PAF-induced human platelet aggregation)
# Experimental: Preparation of Platelet-Rich Plasma (PRP): Human blood (50 ml) is collected from healthy male donors. The blood is mixed with an anticoagulant solution (5 ml) containing sodium citrate (3.8%) and dextrose (2%). Blood is centrifuged at 200×g for 20 min. and the supernatant PRP is carefully transferred into a polypropylene tube. Platelet-poor-plasma (PPP) is prepared by centrifuging PRP at 800×g for 15 min. in a Beckman Microfuge B. PRP is used within 3 hours of drawing the blood.
# Platelet Aggregation Assay: When an aggregating agent such as PAF is added to PRP, platelets aggregate. An aggregometer quantifies this aggregation by measuring light (infra-red) transmission through PRP and comparing it to transmission through PPP. The aggregation assays are performed using a dual-channel aggregometer (Model 440, Chrono-Log Corp., Havertown, Pa.). PRP (0.45 ml) in aggregometer curettes is continually stirred (37° C.). Solutions of test compounds in DMSO or vehicle alone (final concentration of DMSO=0.1% v/v) are added to the PRP, and, after incubation for 2 min., 10- 15 μl aliquots of PAF solution are added so as to achieve a final concentration of 1-5×10^-8 M. Incubations are continued until the increase in light transmission reaches a maximum (usually about 2 min). Values for inhibition are calculated by comparing maximal aggregation obtained in the absence and the presence of the compound. […]
# Solubility = type: physicochemical
# PAF = details: disclosed in JP 03,216,197; cited from earlier work
SMILES,PAF antagonistic properties (in words) [1],IC50 [1] [nM],solubility in acetone (Solubility),solubility in chloroform (Solubility),solubility in dichloromethane (Solubility),solubility in dimethyl sulfoxide (Solubility),solubility in ethyl acetate (Solubility),solubility in hexane (Solubility),solubility in methanol (Solubility),solubility in petroleum ether (Solubility),solubility in water (Solubility),PAF antagonist activity (in words) (PAF)
C/C1=C\CCC2(C)O[C@H]2C(=O)C2=CC[C@H](C)[C@@](C)(CC1)[C@@H]2C=O (relative stereo) [Compound I],antagonistic properties,6960,partially soluble,soluble,soluble,soluble,partially soluble,insoluble,partially soluble,insoluble,insoluble,–
CC1=CCC2=CCC(C)C(C)(CCC(C)=CCC1)C2C (centres unmarked) [Compound IV],antagonistic properties,> 36000,soluble,soluble,soluble,partially soluble,partially soluble,partially soluble,partially soluble,–,insoluble,–
CC1=CCCC2(C)OC2C2(O)OCC3=C2C(O)CC(C)C3(C)CC1 (centres unmarked) [III],antagonistic properties,1260,partially soluble,soluble,soluble,soluble,partially soluble,insoluble,partially soluble,insoluble,insoluble,–
CC1=CCCC2(C)OC2C2(O)OCC3C2=C(O)CC(C)C3(C)CC1 (centres unmarked) [II],antagonistic properties,1680,partially soluble,soluble,soluble,soluble,partially soluble,insoluble,partially soluble,insoluble,insoluble,–
"CC1=CCCC2(C)OC2C(=O)C2=CC(O)C(C)C(C)(CC1)C2(C)O (centres unmarked) [Phomactin B, phomactin B]",–,–,–,–,–,–,–,–,–,–,–,PAF antagonist

# Reference: patent US5338758A (Schering Corporation, priority 1992, dated 1994)
